From US20250011318A1 (ARCUS BIOSCIENCES, INC., priority 2023, published 2025) come the findings set out here.

In general, EC50 refers to the concentration at which the effect is half-maximal. Low values mean higher potency in that assay, high ones lower potency in that assay. A word on the IC50: it is the concentration needed to halve the response being measured.

Some results are limits rather than exact numbers.

For one experiment, the system named is Jurkat cells. Briefly: IL-2 secretion assay in CD3/CD28-activated Jurkat cells (AlphaLISA). The experiment is classed as cell-based, human. The conditions noted are these: Homo sapiens, CD3/CD28 T Cell Activator, 24 h, IL-2 AlphaLISA. The method in brief: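 Jurkat cells (50,000/well) preincubated 1 h at 37° C with compound (16-point 1:2 series, final 10 μM to 300 pM) in Opti-MEM, then stimulated with CD3/CD28 activator for 24 h. Supernatant IL-2 read by AlphaLISA; EC50 from 4-parameter logistic fit.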
(Alpha assays give light when donor and acceptor beads are brought close together.)

The next experiment deals with T1, Cbl-b (Homo sapiens, UniProt Q13191).
T1 construct: biotin (biotinylated)
T1 sequence (Q13191 whole entry, species assumed): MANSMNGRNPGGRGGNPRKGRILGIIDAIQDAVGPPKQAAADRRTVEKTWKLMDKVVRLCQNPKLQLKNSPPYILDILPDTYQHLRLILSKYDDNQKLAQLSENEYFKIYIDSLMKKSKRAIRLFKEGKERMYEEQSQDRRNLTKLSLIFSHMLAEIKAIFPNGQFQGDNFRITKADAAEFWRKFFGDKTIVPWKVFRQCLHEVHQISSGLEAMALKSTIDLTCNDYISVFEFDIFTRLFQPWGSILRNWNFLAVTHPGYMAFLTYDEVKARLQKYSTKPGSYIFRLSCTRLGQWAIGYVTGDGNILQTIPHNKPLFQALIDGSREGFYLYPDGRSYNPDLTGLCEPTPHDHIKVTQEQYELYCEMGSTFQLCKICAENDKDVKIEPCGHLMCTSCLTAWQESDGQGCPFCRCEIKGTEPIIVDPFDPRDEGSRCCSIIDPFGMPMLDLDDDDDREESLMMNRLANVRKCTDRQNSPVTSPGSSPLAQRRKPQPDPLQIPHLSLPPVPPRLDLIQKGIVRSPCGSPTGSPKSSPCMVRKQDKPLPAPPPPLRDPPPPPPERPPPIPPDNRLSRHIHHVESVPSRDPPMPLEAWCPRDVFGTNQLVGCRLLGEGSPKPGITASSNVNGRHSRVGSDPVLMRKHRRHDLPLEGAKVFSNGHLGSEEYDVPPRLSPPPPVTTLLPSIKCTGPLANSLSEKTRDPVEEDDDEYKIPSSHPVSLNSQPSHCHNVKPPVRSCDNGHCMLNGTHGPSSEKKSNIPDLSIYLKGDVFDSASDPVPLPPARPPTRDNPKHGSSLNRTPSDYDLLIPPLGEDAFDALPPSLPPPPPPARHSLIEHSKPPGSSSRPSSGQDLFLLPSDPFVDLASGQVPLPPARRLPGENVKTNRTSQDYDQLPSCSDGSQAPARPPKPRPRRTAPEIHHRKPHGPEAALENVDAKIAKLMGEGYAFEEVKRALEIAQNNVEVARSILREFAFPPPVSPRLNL
Briefly: Cbl-b probe displacement HTRF binding assay. The conditions noted are these: 0.4 nM biotinylated Cbl-b, 150 nM BODIPY probe. The essentials: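 Biotinylated Cbl-b (0.4 nM) preincubated 60 min at RT with compound (20-point 1:2 series, 10 μM top), then 150 nM BODIPY probe for 15 min, then streptavidin-terbium detection. Buffer: 20 mM Hepes, 150 mM NaCl, 0.01% Triton X-100, 0.5 mM TCEP, 0.01% BSA. Loss of HTRF signal gave IC50 via four-parameter fit.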
On the technique in general: Time-resolved FRET reads energy transfer from a long-lived donor to a nearby acceptor.

`Cn1cnnc1-c1cc(F)ccc1-c1cc(C2CC2)nc(-n2cnc3cc(CNC4(C)CCC4)[nH]c3c2=O)c1` [Example 29, 3-[6-cyclopropyl-4-[4-fluoro-2-(4-methyl-1,2,4-triazol-3-yl)phenyl]pyridin-2-yl]-6-[[(1-methylcyclobutyl)amino]methyl]-5H-pyrrolo[3,2-d]pyrimidin-4-one] displayed a half-maximal effective concentration (EC50) with Jurkat cells of less than 100 nM. Moreover, the IC50 on Cbl-b was less than 100 nM.
For the compound `C[C@H]1CCCN(Cc2cc3c(C4CC4)cn(-c4cc(-c5ccc(F)cc5-c5nccn5C)cc(C5CC5)n4)c(=O)c3[nH]2)C1` [Example 52, 2-{[(S)-3-methyl-1-piperidyl]methyl}-4-cyclopropyl-6-{6-cyclopropyl-4-[4-fluoro-2-(1-methyl-2-imidazolyl)phenyl]-2-pyridyl}-1,6-dihydro-1,6-diaza-7-indenone], in the experiment on Jurkat cells, the EC50 was less than 100 nM. Moreover, the concentration for half-maximal inhibition (IC50) at Cbl-b was less than 100 nM.
In the experiment on Jurkat cells, `C[C@H]1CCCN(Cc2cc3c(C4CC4)cn(-c4cc(-c5ccc(C#N)cc5-c5nc(C(F)(F)F)cn5C)cc(C5CC5)n4)c(=O)c3[nH]2)C1` [Example 117, 4-[2-(2-{[(S)-3-methyl-1-piperidyl]methyl}-4-cyclopropyl-7-oxo-1,6-dihydro-1,6-diaza-6-indenyl)-6-cyclopropyl-4-pyridyl]-3-[1-methyl-4-(trifluoromethyl)-2-imidazolyl]benzonitrile] yielded an EC50 of 100 to 1000 nM. Also, at Cbl-b, the IC50 was less than 100 nM.
As for `CCn1ccnc1-c1cc(F)ccc1-c1cc(C2CC2)nc(-n2cc(C3CC3)c3cc(CN4CCO[C@H](C)C4)[nH]c3c2=O)c1` [Example 64, 2-{[(R)-2-methyl-4-morpholinyl]methyl}-4-cyclopropyl-6-{6-cyclopropyl-4-[2-(1-ethyl-2-imidazolyl)-4-fluorophenyl]-2-pyridyl}-1,6-dihydro-1,6-diaza-7-indenone], in the experiment with Jurkat cells, the EC50 lay in the range of 100 to 1000 nM. The IC50 at Cbl-b was less than 100 nM.
Regarding `COc1cc(-c2ccc(F)cc2-c2nccn2C)cc(-n2cc(C3CC3)c3cc(CN4CCC[C@H](C)C4)[nH]c3c2=O)n1` [Example 82, 4-Cyclopropyl-6-[4-[4-fluoro-2-(1-methylimidazol-2-yl)phenyl]-6-methoxypyridin-2-yl]-2-[[(3S)-3-methylpiperidin-1-yl]methyl]-1H-pyrrolo[2,3-c]pyridin-7-one], the half-maximal effective concentration (EC50) with Jurkat cells is less than 100 nM. Also, the IC50 on Cbl-b was less than 100 nM.
In the experiment on Jurkat cells, `C[C@H]1CCCN(Cc2cc3c(C4CC4)cn(-c4cc(-c5ccc(C(F)(F)F)cc5-c5nccn5C)cc(C5CC5)n4)c(=O)c3[nH]2)C1` [Example 83, 4-Cyclopropyl-6-[6-cyclopropyl-4-[2-(1-methylimidazol-2-yl)-4-(trifluoromethyl)phenyl]pyridin-2-yl]-2-[[(3S)-3-methylpiperidin-1-yl]methyl]-1H-pyrrolo[2,3-c]pyridin-7-one] came in with an EC50 of less than 100 nM. For the same compound, the IC50 at Cbl-b is less than 100 nM.
`Cn1ccnc1-c1cc(F)ccc1-c1cc(C2CC2)nc(-n2cc(C(F)(F)F)c3c(C#N)c[nH]c3c2=O)c1` [Example 136, 6-{6-cyclopropyl-4-[4-fluoro-2-(1-methyl-2-imidazolyl)phenyl]-2-pyridyl}-7-oxo-4-(trifluoromethyl)-1,6-dihydro-1,6-diaza-3-indenecarbonitrile] had an EC50 with Jurkat cells of less than 100 nM. The half-maximal inhibitory concentration (IC50) on Cbl-b was less than 100 nM.
In the experiment with Jurkat cells, `Cn1ccnc1-c1cc(F)ccc1-c1cc(C2CC2)nc(-n2cc(C3CC3)c3cc(CNC4(C)CCC4)[nH]c3c2=O)c1` [Example 55, 4-cyclopropyl-6-{6-cyclopropyl-4-[4-fluoro-2-(1-methyl-2-imidazolyl)phenyl]-2-pyridyl}-2-[(1-methylcyclobutylamino)methyl]-1,6-dihydro-1,6-diaza-7-indenone] had a concentration giving a half-maximal response (EC50) of less than 100 nM. Also, the IC50 on Cbl-b was less than 100 nM.
The compound `Cn1cnnc1-c1cc(F)ccc1-c1cc(C2CC2)nc(-n2cc(C(F)(F)F)c3nc(CC4CCCCC4)[nH]c3c2=O)c1` [Example 43, 2-(Cyclohexylmethyl)-5-{6-cyclopropyl-4-[4-fluoro-2-(4-methyl-4H-1,2,4-triazol-3-yl)phenyl]-2-pyridyl}-7-(trifluoromethyl)-3,5-dihydro-1,3,5-triaza-4-indenone] showed an EC50 with Jurkat cells of less than 100 nM. On Cbl-b, this compound gave an IC50 of less than 100 nM.
Consider `COCCOCc1cc2ncn(-c3cc(-c4ccc(F)cc4-c4nncn4C)cc(C4CC4)n3)c(=O)c2[nH]1` [Example 38, 6-{6-cyclopropyl-4-[4-fluoro-2-(4-methyl-4H-1,2,4-triazol-3-yl)phenyl]-2-pyridyl}-2-[(2-methoxyethoxy)methyl]-1,6-dihydro-1,4,6-triaza-7-indenone], for which, in the experiment with Jurkat cells, the EC50 lay within 100 to 1000 nM. Besides, the IC50 on Cbl-b was less than 100 nM.
For `Cn1cnnc1-c1cc(F)ccc1-c1cc(C2CC2)nc(-n2cc(C(F)(F)F)c3cc(CO)[nH]c3c2=O)c1` [Example 137, 6-[6-cyclopropyl-4-[4-fluoro-2-(4-methyl-1,2,4-triazol-3-yl)phenyl]pyridin-2-yl]-2-(hydroxymethyl)-4-(trifluoromethyl)-1H-pyrrolo[2,3-c]pyridin-7-one], in that order: less than 100 nM and less than 100 nM.
For `CO[C@H]1CCCN(Cc2cc3c(C4CC4)cn(-c4cc(-c5ccc(F)cc5-c5nccn5C)cc(C5CC5)n4)c(=O)c3[nH]2)C1` [Example 61, 2-{[(S)-3-methoxy-1-piperidyl]methyl}-4-cyclopropyl-6-{6-cyclopropyl-4-[4-fluoro-2-(1-methyl-2-imidazolyl)phenyl]-2-pyridyl}-1,6-dihydro-1,6-diaza-7-indenone], in that order: 100 to 1000 nM and less than 100 nM.
For `CC(=O)N1CCC[C@H]1c1nc2c(C(F)(F)F)cn(-c3cc(-c4ccc(F)cc4-c4nncn4C)cc(C4CC4)n3)c(=O)c2[nH]1` [Example 45, 2-[(2S)-1-acetylpyrrolidin-2-yl]-5-[6-cyclopropyl-4-[4-fluoro-2-(4-methyl-1,2,4-triazol-3-yl)phenyl]pyridin-2-yl]-7-(trifluoromethyl)-3H-imidazo[4,5-c]pyridin-4-one], in that order: 100 to 1000 nM and less than 100 nM.
In the case of `Cc1c[nH]nc1-c1cc(C#N)ccc1-c1cc(C2CC2)nc(-n2cc(C3CC3)c3cc(CN4C[C@@H]5C[C@H]4CN5)[nH]c3c2=O)c1` [Example 18, 4-[2-cyclopropyl-6-[4-cyclopropyl-2-[[(1S,4S)-2,5-diazabicyclo[2.2.1]-heptan-2-yl]methyl]-7-oxo-1H-pyrrolo[2,3-c]pyridin-6-yl]pyridin-4-yl]-3-(4-methyl-1H-pyrazol-3-yl)benzonitrile], the EC50 with Jurkat cells was 1000 to 5000 nM. For the same compound, the IC50 on Cbl-b is less than 100 nM.
The corresponding values for `C[C@H]1CCCN(Cc2cc3c(C4CC4)cn(-c4cc(-c5ccc(C#N)cc5-c5nncn5C)cc(C5CC5)n4)c(=O)c3[nH]2)C1` [Example 2, 4-[2-(2-{[(S)-3-methyl-1-piperidyl]methyl}-4-cyclopropyl-7-oxo-1,6-dihydro-1,6-diaza-6-indenyl)-6-cyclopropyl-4-pyridyl]-3-(4-methyl-4H-1,2,4-triazol-3-yl)benzonitrile] are less than 100 nM and less than 100 nM.
For `Cn1cnnc1-c1cc(F)ccc1-c1cc(C2CC2)nc(-n2cc(C#N)c3cc([C@H](N)C(F)(F)F)[nH]c3c2=O)c1` [Example 98, 2-[(S)-1-amino-2,2,2-trifluoroethyl]-6-{6-cyclopropyl-4-[4-fluoro-2-(4-methyl-4H-1,2,4-triazol-3-yl)phenyl]-2-pyridyl}-7-oxo-1,6-dihydro-1,6-diaza-4-indenecarbonitrile], in that order: less than 100 nM and less than 100 nM.
